This passage reports TGI and GI50 results from PubChem BioAssay (NCI).

Where “and” joins values, the source holds several entries; their conditions need not be identical. Identical values can stand only once.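 Cultured in 96-well plates, cells were exposed to test compound for 48 hours across five concentrations. The concentration for 50% growth inhibition is given as GI50. Definition used: TGI = concentration required for complete inhibition of growth.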

Test systems include OVCAR-5 ovarian; SK-OV-3 ovarian; MOLT-4 leukemia; SNB-19 CNS; NCI-H23 lung; TK-10 renal; SK-MEL-28 melanoma; MALME-3M melanoma; SW-620 colon; OVCAR-3 ovarian.
Test in all cases: growth of human tumour cells (NCI), 48 h

In the case of `Oc1ccc(O)c(-n2cccn2)c1`, the TGI with OVCAR-5 ovarian is > 100 µM; in the assay on SK-OV-3 ovarian it was > 100 µM; with MOLT-4 leukemia it was 59.5 µM; with SNB-19 CNS, > 100 µM; in the assay on NCI-H23 lung it was > 100 µM; in the assay on TK-10 renal, > 100 µM. Further, the figures for the TGI in the assay with SK-MEL-28 melanoma, in the assay with MALME-3M melanoma and in the assay with SW-620 colon were > 100 µM, > 100 µM and 73.7 µM, respectively.
With `NCCCNCc1c2ccccc2c(CNCCCN)c2ccccc12`, the TGI in the assay with OVCAR-5 ovarian is 62.1 µM; in the assay on MOLT-4 leukemia, 43.9 µM; in the assay on SNB-19 CNS, > 100 µM; in the assay on OVCAR-3 ovarian, 98.5 µM; in the assay with NCI-H23 lung it was 49.7 µM; in the assay with TK-10 renal it was > 100 µM. The values for the TGI in the assay on MALME-3M melanoma and with SW-620 colon were 24.2 µM and 26 µM, respectively.
With `Cn1nc(-c2ccccc2)c2c(/C=C/c3ccc(F)cc3)onc2c1=O`, the TGI with SK-OV-3 ovarian, in the assay with MOLT-4 leukemia, with NCI-H23 lung, with TK-10 renal, with SK-MEL-28 melanoma and in the assay on SW-620 colon was > 100 µM in each case.
As to `C[N+]1(CCNP(=S)(NCC[N+]2(C)Cc3c(ccc4c3OCO4)C3C2c2cc4c(cc2C[C@@H]3O)OCO4)NCC[N+]2(C)Cc3c(ccc4c3OCO4)C3C2c2cc4c(cc2C[C@@H]3O)OCO4)Cc2c(ccc3c2OCO3)C2C1c1cc3c(cc1C[C@H]2O)OCO3` (stereo partly specified), the TGI with OVCAR-5 ovarian is < 0.00191 µM. Besides, the GI50 in the assay with SK-OV-3 ovarian is 2.96 µM; in the assay on SNB-19 CNS, 7.66 µM; in the assay with OVCAR-3 ovarian, 1.68 µM; in the assay with NCI-H23 lung, 2.25 µM; in the assay on TK-10 renal, 8.2 µM; in the assay on SK-MEL-28 melanoma, 3.51 µM. For the same compound, the GI50 was 2.09 µM in the assay on MALME-3M melanoma and 1.4 µM in the assay on SW-620 colon.
For `Cc1ccc([N+](=O)[O-])cc1NC(=O)C(=O)Cc1nc2ccc(C(=O)c3ccccc3)cc2[nH]c1=O`, the TGI in the assay with SK-OV-3 ovarian, with MOLT-4 leukemia, with SNB-19 CNS, with OVCAR-3 ovarian, in the assay with NCI-H23 lung and in the assay on TK-10 renal was > 100 µM in each case. In addition, the TGI in the assay on SK-MEL-28 melanoma, with MALME-3M melanoma and in the assay on SW-620 colon was > 100 µM in each case.
As to `C=C(C)[C@@H]1C/C=C(/COC(C)=O)CC[C@H]2O[C@@]2(C)CC/C=C(\C)CC1`, the GI50 in the assay with OVCAR-5 ovarian was > 100 µM; in the assay on SK-OV-3 ovarian, > 100 µM; with MOLT-4 leukemia, 28.4 µM; in the assay with SNB-19 CNS it was > 100 µM; in the assay on OVCAR-3 ovarian, > 100 µM; in the assay with NCI-H23 lung, > 100 µM. The GI50 in the assay with TK-10 renal, in the assay on SK-MEL-28 melanoma and in the assay on MALME-3M melanoma was > 100 µM each time. The TGI was > 100 µM with OVCAR-5 ovarian; > 100 µM in the assay with SK-OV-3 ovarian; 82.3 µM in the assay with MOLT-4 leukemia; > 100 µM with SNB-19 CNS; > 100 µM in the assay with OVCAR-3 ovarian; > 100 µM with NCI-H23 lung. Moreover, the TGI in the assay with TK-10 renal, with SK-MEL-28 melanoma and with MALME-3M melanoma was > 100 µM each time.
With `Oc1cccc2cccnc12`, the TGI in the assay with OVCAR-5 ovarian is 21.1 µM and > 100 µM; with SK-OV-3 ovarian it was > 100 µM; with SNB-19 CNS it was > 100 µM; with NCI-H23 lung, 18.9 µM and > 100 µM; in the assay on TK-10 renal, > 100 µM; in the assay on SK-MEL-28 melanoma, > 100 µM. Besides, the TGI in the assay on MALME-3M melanoma and in the assay with SW-620 colon was > 100 µM throughout. Moreover, the GI50 in the assay on SK-OV-3 ovarian is 42.2 µM and 46.1 µM and > 100 µM; in the assay with SNB-19 CNS, 23.6 µM and 96.4 µM and 38.9 µM; with NCI-H23 lung, 2.49 µM and 13.4 µM and 3.93 µM; in the assay on TK-10 renal it was 51.5 µM and 8.42 µM and 47.7 µM; in the assay with SK-MEL-28 melanoma, 16.9 µM and > 100 µM and > 55.5 µM; with SW-620 colon, 0.904 µM and 3.9 µM and 2.36 µM.
In the case of `COc1cc(/C=C/C(=O)c2ccccc2O)ccc1OCCCOc1cc2c(cc1OC)C(=O)N1CCC[C@H]1C=N2`, the GI50 is 0.0354 µM in the assay on OVCAR-5 ovarian; 0.316 µM with SK-OV-3 ovarian; 0.017 µM with MOLT-4 leukemia; 0.193 µM in the assay on SNB-19 CNS; 0.0289 µM with OVCAR-3 ovarian; 0.0363 µM in the assay with NCI-H23 lung. For the same compound, the GI50 was 0.0794 µM in the assay with TK-10 renal, 0.0476 µM with SK-MEL-28 melanoma and 0.0787 µM in the assay with MALME-3M melanoma. The TGI was determined as 1.16 µM with OVCAR-5 ovarian; 3.82 µM in the assay on SK-OV-3 ovarian; 0.0572 µM in the assay with MOLT-4 leukemia; 0.124 µM in the assay on OVCAR-3 ovarian; 0.151 µM with NCI-H23 lung; 1.62 µM in the assay with TK-10 renal. Also, the TGI in the assay with SK-MEL-28 melanoma amounted to 0.109 µM; in the assay with MALME-3M melanoma, 0.318 µM.
Turning to `Cn1c(=O)nc2n(-c3ccc(F)c(F)c3)c3ccccc3nc-2c1=O`, the TGI was 37.5 µM in the assay with OVCAR-5 ovarian; > 100 µM in the assay on SK-OV-3 ovarian; 44.9 µM with SNB-19 CNS; 10.3 µM in the assay with OVCAR-3 ovarian; 29.9 µM with NCI-H23 lung; > 100 µM with TK-10 renal. In addition, the TGI in the assay on MALME-3M melanoma was 24.3 µM; with SW-620 colon, 20.3 µM.
For `COc1ccc(C2=NN(C(C)=O)c3nc4ccccc4nc3O2)cc1`, the TGI in the assay on MOLT-4 leukemia is > 100 µM; in the assay on SNB-19 CNS it was 87.7 µM; with OVCAR-3 ovarian, > 100 µM; with NCI-H23 lung, > 100 µM; with TK-10 renal, 52.1 µM; with SK-MEL-28 melanoma, > 100 µM. The TGI in the assay on MALME-3M melanoma and with SW-620 colon was > 100 µM throughout.
Consider `N#Cc1ccc2[nH]cc(Cc3c[nH]c4ccc(C#N)cc34)c2c1`, for which the GI50 in the assay on OVCAR-5 ovarian is 12.3 µM; in the assay with MOLT-4 leukemia, 7.53 µM; in the assay on SNB-19 CNS it was 17.2 µM; in the assay on OVCAR-3 ovarian it was 16.7 µM; in the assay with NCI-H23 lung it was 15.2 µM; with TK-10 renal it was 13.5 µM. Moreover, the figures for the GI50 in the assay with SK-MEL-28 melanoma, with MALME-3M melanoma and in the assay on SW-620 colon were 17.4 µM, 6.98 µM and 17.8 µM, respectively. Further, the TGI in the assay with OVCAR-5 ovarian was 29.8 µM; in the assay on MOLT-4 leukemia it was 19.5 µM; in the assay on SNB-19 CNS, > 50 µM; with OVCAR-3 ovarian, 49 µM; with NCI-H23 lung it was 35.4 µM; in the assay on TK-10 renal it was 33.5 µM. Moreover, the TGI was > 50 µM in the assay with SK-MEL-28 melanoma, 21.1 µM in the assay with MALME-3M melanoma and > 50 µM in the assay on SW-620 colon.
Turning to `COc1ccc(OC)c(-c2cc(-c3ccc(Cl)cc3)nn2-c2ccccc2)c1`, the GI50 in the assay with OVCAR-5 ovarian was 88.4 µM; with MOLT-4 leukemia, 8.7 µM; in the assay on OVCAR-3 ovarian, 23.7 µM; in the assay with NCI-H23 lung it was 27.7 µM; in the assay on TK-10 renal it was 26.1 µM; in the assay on SW-620 colon, 17 µM. The TGI with OVCAR-5 ovarian is > 100 µM; in the assay with MOLT-4 leukemia it was > 100 µM; with OVCAR-3 ovarian, 46.7 µM; with NCI-H23 lung, > 100 µM; in the assay with TK-10 renal, 88.2 µM; with SW-620 colon it was 78.4 µM.
